The term IC50 denotes the concentration at which inhibition is half-maximal.

Structures are written as SMILES. Like-named read-outs stand apart in the source and are kept apart here. Some results are limits rather than exact numbers.

One assay concerns the target PRMT5:MEP50 (Homo sapiens, UniProt O14744). As to the kind of experiment: Biochemical assay, HTRF detection, inhibitory effect on PRMT5. Particulars: biotinylated H4R3 substrate, 1 μM SAM; protocol 1 or 2 not given; read-out: IC50 (PRMT5 inhibition), activity range. How it is done:
(§1) Inhibitory effect of compounds on PRMT5 was assessed using HTRF detection technology in biochemical assay. Biotinylated H4R3 (residues 1-21) was used as a substrate. Compounds were pre-incubated with 15-25 ng PRMT5:MEP50 per well of a 384-well plate for 30 min at room temperature in the assay buffer containing 20 mM Bicine, pH 7.6, 25 mM NaCl, 2 mM DTT, 0.01% Chicken albumin and 0.01% Tween-20. Reaction was initiated by adding 1 μM of SAM and 50 nM biotinylated H4R3. Total assay volume was 15 μL. Reaction was continued for 120 min at room temperature. Then detection solution containing Streptavidin-Eu cryptate, anti-rabbit IgG-XL-665, Histone H4R3 Dimethyl Symmetric (H4R3me2s) Polyclonal Antibody, all prepared in HTRF detection buffer was added and further incubated for 30 min at room temperature. HTRF signal was recorded in PHERAStar microplate reader. Ratio of signal obtained at 665 nm and 620 nm was used to compute the percent inhibition of compound as follows % Inhibition=100−((Test Ratio−Negative control Ratio)/(Positive control Ratio−Negative control Ratio)*100) where Positive control=PRMT5+SAM+H4R3 Negative control=PRMT5+H4R3
as §1, with “2.5” for “15-25”, “4 h” for “120 min”

The subject of another assay is SDMA. As to the kind of experiment: SDMA inhibition assay. The class given is cell-based. Particulars: Homo sapiens, Z-138 cells, 48 h. How it is done: Z-138 cells (ATCC, CRL-3001™) were seeded at a density of 1 million cells/well in transparent, flat bottomed tissue culture grade 48-well plates. Cells were treated with various concentration of test compounds for a period of 48 h. Cell lysate was prepared using 1×CST Lysis buffer (Cell Signaling Technology, USA) and 500 ng/well/50 μL of lysate in pH 9.6 carbonate buffer was coated on 96-well Maxisorb plate and incubated overnight at 4° C. The plate was washed twice in 1×PBS containing 0.05% Tween 20 and blocked in 1% BSA for 1 h at ambient temperature. Further, the plate was incubated first with primary antibody (anti-SDMA antibody; CST #13222s) at ambient temperature for 2 h and then with HRP-conjugated secondary antibody at ambient temperature for 1 h with 2 intermittent washing steps in between.
For luminescence based detection, HRP substrates (substrate A+ substrate B in a 1:1 proportion) were added followed by luminescence reading after 30 min in Synergy™ 2 reader (Biotek, USA).
For absorbance based detection, TMB substrate was added followed by addition of STOP solution (2N H2SO4) post colour development and absorbance (excitation 450 nm and emission 540 nm) was measured in Synergy™ 2 reader (Biotek, USA).
% inhibition of SDMA was calculated relative to the vehicle control samples containing media with 0.1% DMSO alone as per the formula below. (Avg. of Untreated Control−Avg. of Test)×100 • Avg. of Untreated control
(§2) The IC50 values of individual compounds were calculated with Non Linear Regression Analysis using Graph Pad Prism (Graph Pad software, Inc, USA).

In the next assay the test system is MIA PaCa-2 cells. As to the kind of experiment: Anti-Cancer Assay (MIA PaCa-2). The class given is cell-based. Conditions: Homo sapiens, 240 h, 10 days, read-out: IC50 (inhibition of cell viability), activity range. The procedure:
(§3) Z-138 cells were seeded at a density of 2000-3000 cells per well in culture media (IMDM+10% FBS). PANC-1 (ATCC, CRL-1469™) and MIA PaCa-2 (ATCC, CRL-1420™) cells were seeded at a density of 200-300 cells per well in culture media (DMEM+10% FBS). Cells were seeded in opaque, flat bottomed tissue culture grade 96-well plates and Z-138 cells (suspension) were seeded and treated on the same day with various concentrations of test compounds. PANC-1 and MIA PaCa-2 cells, being adherent, were kept for overnight settlement at standard cell culture conditions (37° C., 5% CO2). On the following day, cells were treated with various concentrations of test compounds. Cells were treated with test compounds for a period of 96 h, 7 days and 10 days, for Z-138 cells, PANC-1 cells and MIA PaCa-2 cells, respectively. Cell viability was assessed using CellTiterGlo™ (Promega, USA) as per manufacturer's instructions. Relative Light Units (RLU) were read in Synergy™ 2 reader (Biotek, USA). The assay measures cellular ATP as an indicator of cell viability. RLU is proportional to the number of viable cells in the respective well.
(§4) % inhibition of cell viability was calculated relative to the vehicle control samples containing media with 0.1% DMSO alone as per the formula below. (Avg. of Untreated Control−Avg. of Test)×100 • Avg. of Untreated control
as §2

The next assay relates to MIA PaCa-2 xenograft. In words: Subchronic MIA PaCa-2 xenograft model, tumor growth inhibition. The class given is in vivo, Mus musculus. Conditions: 2 mg/kg dose, female athymic nude mice. The procedure: Tumor size was measured with Digimatic Vernier caliper (Mitutoyo, Japan) when the tumors became palpable. Tumor volume (T. V.) is calculated by using the formula: Tumor volume (mm3)=(L×W2)/2
Where, L: Length of tumor, W: Width of tumor in millimeter Percent tumor growth inhibition (% TGI) is calculated using the formula: % TGI=[1−(Tf−Ti)/(Cf−Ci)]×100
Where, Tf and Ti, are the final and initial tumor volumes (test compound), and Cf and Ci are the final and initial mean tumor volumes (vehicle group), respectively.
Tumor fragment xenograft for pancreatic cancer cell line MIA PaCa-2 was established by implantation of tumor fragments 30-45 mm^3 subcutaneously into the right flank of female athymic nude FOXn1/J/Mus musculus mice with an age between 10-11 weeks purchased from the Jackson Laboratory, USA. All animal study proposals were reviewed and approved by the Institutional Animal Ethics Committee (IAEC) prior to initiation of experimentation.

The subject of another assay is Z-138 cells. As to the kind of experiment: Anticancer activity assay (cell viability, CellTiterGlo). Format: cell-based. Conditions: Homo sapiens, cell line not given, read-out: IC50 (inhibition of cell viability), activity range. The procedure: as §3, §4, §2
Setting [1] is: range given with mixed units (pM to nM).
The mark [2] stands for this setting: read-out: IC50 (SDMA inhibition), activity range.

PRMT5:MEP50, sequence (O14744 whole entry, the tested form may be a part): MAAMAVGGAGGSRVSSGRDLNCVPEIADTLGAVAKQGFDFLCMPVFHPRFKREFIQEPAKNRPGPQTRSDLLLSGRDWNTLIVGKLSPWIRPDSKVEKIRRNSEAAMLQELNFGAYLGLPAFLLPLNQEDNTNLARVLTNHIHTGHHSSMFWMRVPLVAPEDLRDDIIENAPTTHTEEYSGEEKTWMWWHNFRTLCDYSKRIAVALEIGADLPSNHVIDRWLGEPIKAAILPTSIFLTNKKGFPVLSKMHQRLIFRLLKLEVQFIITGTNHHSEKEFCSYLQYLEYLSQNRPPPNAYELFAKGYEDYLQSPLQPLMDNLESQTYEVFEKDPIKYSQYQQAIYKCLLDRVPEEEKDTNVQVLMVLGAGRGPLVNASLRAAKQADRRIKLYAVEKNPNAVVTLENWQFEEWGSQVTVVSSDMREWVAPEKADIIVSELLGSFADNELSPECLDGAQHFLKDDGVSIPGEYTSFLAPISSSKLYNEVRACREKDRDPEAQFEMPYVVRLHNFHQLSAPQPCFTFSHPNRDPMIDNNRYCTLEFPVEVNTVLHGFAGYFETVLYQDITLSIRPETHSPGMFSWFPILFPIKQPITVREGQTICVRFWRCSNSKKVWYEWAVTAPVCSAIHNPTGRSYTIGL
PRMT5:MEP50, sequence (Q9BQA1 whole entry partner, the tested form may be a part): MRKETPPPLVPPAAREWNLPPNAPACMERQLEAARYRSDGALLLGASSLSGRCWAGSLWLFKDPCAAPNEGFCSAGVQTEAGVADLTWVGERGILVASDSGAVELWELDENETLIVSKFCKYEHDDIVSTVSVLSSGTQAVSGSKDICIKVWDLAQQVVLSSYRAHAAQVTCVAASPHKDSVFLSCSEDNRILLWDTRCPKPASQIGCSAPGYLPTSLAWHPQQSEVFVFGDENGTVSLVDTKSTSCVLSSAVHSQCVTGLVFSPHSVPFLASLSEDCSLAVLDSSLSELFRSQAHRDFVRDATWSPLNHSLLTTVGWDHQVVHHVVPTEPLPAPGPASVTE

Take `Cc1nc(N)nc2c1ccn2[C@@H]1C=C(CCc2cc(F)c3cc(Cl)c(N)nc3c2)[C@@H](O)[C@H]1O` [Example 1, (1S,2R,5R)-3-(2-(2-Amino-3-chloro-5-fluoroquinolin-7-yl)ethyl)-5-(2-amino-4-methyl-7H-pyrrolo[2,3-d]pyrimidin-7-yl)cyclopent-3-ene-1,2-diol]: the IC50 on PRMT5:MEP50 lay within 400 to 750 pM; with SDMA (setting [1]), 100 to 1000 pM; with MIA PaCa-2 cells it was 1 to 400 pM. Moreover, the “% of tumor growth inhibition” value with MIA PaCa-2 xenograft worked out at 57%.

Consider `Cc1nc(N)nc2c1ccn2[C@@H]1C=C(COc2cc(F)c3cc(Cl)c(N)nc3c2)[C@@H](O)[C@H]1O` [Example 2, (1S,2R,5R)-3-(((2-Amino-3-chloro-5-fluoroquinolin-7-yl)oxy)methyl)-5-(2-amino-4-methyl-7H-pyrrolo[2,3-d]pyrimidin-7-yl)cyclopent-3-ene-1,2-diol], for which the IC50 lay within 400 to 750 pM at PRMT5:MEP50, 1100 to 50000 pM with SDMA (setting [2]) and 401 to 30000 pM with MIA PaCa-2 cells (setting [1]).

As to `Cc1nc(N)c2ccn([C@@H]3C=C(COc4cc(F)c5cc(Cl)c(N)nc5c4)[C@@H](O)[C@H]3O)c2n1` [Example 3, (1S,2R,5R)-5-(4-Amino-2-methyl-7H-pyrrolo[2,3-d]pyrimidin-7-yl)-3-(((2-amino-3-chloro-5-fluoroquinolin-7-yl)oxy)methyl)cyclopent-3-ene-1,2-diol], the IC50 was 400 to 750 pM on PRMT5:MEP50, 1100 to 50000 pM in the assay with SDMA (setting [2]) and 401 to 30000 pM in the assay with MIA PaCa-2 cells (setting [1]).

For `Cc1nc(N)nc2c1cnn2[C@@H]1C=C(CCc2cc(F)c3cc(Cl)c(N)nc3c2)[C@@H](O)[C@H]1O` [Example 4, (1S,2R,5R)-3-(2-(2-Amino-3-chloro-5-fluoroquinolin-7-yl)ethyl)-5-(6-amino-4-methyl-1H-pyrazolo[3,4-d]pyrimidin-1-yl)cyclopent-3-ene-1,2-diol], the figures for the IC50 on PRMT5:MEP50, in the assay with SDMA (setting [1]) and with MIA PaCa-2 cells (setting [1]) were 400 to 750 pM, 100 to 1000 pM and 401 to 30000 pM, respectively.

For `Cc1nc(N)c2ccn([C@@H]3C=C(COc4cc(C(F)F)cc5c4CNCC5)[C@@H](O)[C@H]3O)c2n1` [Example 5, (1S,2R,5R)-5-(4-Amino-2-methyl-7H-pyrrolo[2,3-d]pyrimidin-7-yl)-3-(((6-(difluoromethyl)-1,2,3,4-tetrahydroisoquinolin-8-yl)oxy)methyl)cyclopent-3-ene-1,2-diol], the IC50 on PRMT5:MEP50 was over 750 pM; in the assay on Z-138 cells, over 1000 pM.

For `Cc1nc(N)c2ccn([C@@H]3C=C(CCc4cc(C(F)F)cc5c4CNCC5)[C@@H](O)[C@H]3O)c2n1` [Example 6, (1S,2R,5R)-5-(4-Amino-2-methyl-7H-pyrrolo[2,3-d]pyrimidin-7-yl)-3-(2-(6-(difluoromethyl)-1,2,3,4-tetrahydroisoquinolin-8-yl)ethyl)cyclopent-3-ene-1,2-diol], the figures for the IC50 at PRMT5:MEP50 and in the assay on Z-138 cells were over 750 pM and over 1000 pM, respectively.

For the compound `Cc1nc(N)c2ccn([C@@H]3C=C(CCc4cc(F)c5cc(Cl)c(N)nc5c4)[C@@H](O)[C@H]3O)c2n1` [Example 7, (1S,2R,5R)-5-(4-Amino-2-methyl-7H-pyrrolo[2,3-d]pyrimidin-7-yl)-3-(2-(2-amino-3-chloro-5-fluoroquinolin-7-yl)ethyl)cyclopent-3-ene-1,2-diol], the half-maximal inhibitory concentration (IC50) on PRMT5:MEP50 fell in the range of 400 to 750 pM; in the assay on SDMA (setting [1]), 100 to 1000 pM; in the assay on MIA PaCa-2 cells it was 1 to 400 pM.

For the compound `Cc1nc(N)nc2c1ccn2[C@@H]1C=C(CCc2cc(C(F)F)c(F)c3c2CNCC3)[C@@H](O)[C@H]1O` [Example 8, (1S,2R,5R)-5-(2-Amino-4-methyl-7H-pyrrolo[2,3-d]pyrimidin-7-yl)-3-(2-(6-(difluoromethyl)-5-fluoro-1,2,3,4-tetrahydroisoquinolin-8-yl)ethyl)cyclopent-3-ene-1,2-diol], the IC50 is 400 to 750 pM at PRMT5:MEP50, 1100 to 50000 pM with SDMA (setting [2]) and over 1000 pM in the assay with Z-138 cells.

Values taken from patent US12673054B2, “Substituted nucleoside analogs as PRMT5 inhibitors” (Lupin Limited, priority 2019, dated 2026).
